Test systems include K-562 leukemia; 786-0 renal; SF-539 CNS; SNB-19 CNS; NCI/ADR-RES ovarian; OVCAR-3 ovarian; HS 578T breast; KM12 colon; UO-31 renal; RXF 393 renal; A498 renal; NCI-H460 lung; MDA-MB-231 breast; UACC-257 melanoma; SF-295 CNS; MDA-N; HOP-62 NSCLC; LOX IMVI melanoma; NCI-H226 lung; HOP-92 NSCLC.
What all share (test): NCI anticancer screen, dose series, 48 h

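In this assay, cells in 96-well plates receive the compound at five concentrations for 48 hours. Endpoints are linearly interpolated between the surrounding concentrations. TGI marks complete inhibition of growth.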

Consider `COC1=C(OC)C(=O)C(Cc2c(C)nc3sccn23)=C(C)C1=O`, for which the TGI amounted to 39.8 µM in the test with K-562 leukemia; 43.2 µM in the test with 786-0 renal; 31.2 µM with SF-539 CNS; 33.3 µM with SNB-19 CNS; 31.1 µM in the test with NCI/ADR-RES ovarian; 34.3 µM with OVCAR-3 ovarian. For the same compound, the TGI in the test on HS 578T breast amounted to 58.5 µM; with KM12 colon, 33.9 µM; with UO-31 renal it was 29.1 µM; in the test on RXF 393 renal, 51.7 µM; with A498 renal it was 38.3 µM; with NCI-H460 lung it was 61.5 µM. Besides, the TGI stood at 32.9 µM in the test on MDA-MB-231 breast; 20.7 µM in the test with UACC-257 melanoma; 30 µM with SF-295 CNS; 26 µM in the test with MDA-N; 34.8 µM with HOP-62 NSCLC; 36.5 µM in the test on LOX IMVI melanoma.
With `CCOC(=O)c1cc2c3ccn(Cc4ccccc4)c3c3c(C)[nH]oc3c2n1`, the TGI with K-562 leukemia, with 786-0 renal, in the test on SNB-19 CNS, in the test on NCI-H226 lung, in the test with NCI/ADR-RES ovarian and with OVCAR-3 ovarian was greater than 100 µM each time. The TGI in the test with HS 578T breast, in the test on KM12 colon, with UO-31 renal, in the test on RXF 393 renal, in the test on A498 renal and in the test on NCI-H460 lung was greater than 100 µM throughout. Also, the TGI with MDA-MB-231 breast, in the test on UACC-257 melanoma, in the test on SF-295 CNS, in the test with MDA-N, in the test on HOP-62 NSCLC and in the test with LOX IMVI melanoma was greater than 100 µM throughout.
Take `CN(C(=O)Cc1cccc(N=C=S)c1)[C@H]1CCCC[C@@H]1N1CCCC1`: the TGI came out at 53.2 µM with K-562 leukemia; 28.6 µM with 786-0 renal; 29 µM in the test on HOP-92 NSCLC; 47.6 µM with SNB-19 CNS; 79.8 µM in the test on NCI/ADR-RES ovarian; 28 µM with OVCAR-3 ovarian. The TGI in the test with HS 578T breast amounted to 45 µM; with KM12 colon, 32.1 µM; in the test on UO-31 renal, 29.3 µM; in the test on RXF 393 renal, 25.9 µM; in the test on A498 renal, 32.8 µM; in the test with NCI-H460 lung it was 36.3 µM. Also, the TGI in the test on MDA-MB-231 breast is 31.8 µM; in the test on UACC-257 melanoma it was 28.9 µM; in the test on SF-295 CNS, greater than 100 µM; with MDA-N it was 27.7 µM; with HOP-62 NSCLC, 33.2 µM; in the test with LOX IMVI melanoma it was 31.3 µM.
With `CC(=O)Oc1ccc2cc(-c3ccccc3OC(C)=O)c(=O)oc2c1`, the TGI in the test with K-562 leukemia is greater than 100 µM; in the test with 786-0 renal, greater than 100 µM; in the test on SF-539 CNS, greater than 100 µM; in the test on SNB-19 CNS, greater than 100 µM; with NCI-H226 lung, 70.7 µM; in the test on NCI/ADR-RES ovarian it was greater than 100 µM. Further, the TGI was greater than 100 µM with OVCAR-3 ovarian; greater than 100 µM with HS 578T breast; greater than 100 µM in the test with KM12 colon; 28.4 µM in the test on UO-31 renal; greater than 100 µM in the test on A498 renal; greater than 100 µM in the test with NCI-H460 lung. Besides, the TGI in the test on MDA-MB-231 breast, in the test on UACC-257 melanoma, with SF-295 CNS, in the test with MDA-N, in the test on HOP-62 NSCLC and with LOX IMVI melanoma was greater than 100 µM each time.
For `COc1cc(OC)c2c(C)cc(=O)oc2c1`, the TGI in the test with K-562 leukemia, with 786-0 renal, in the test on SF-539 CNS, in the test with SNB-19 CNS, in the test on NCI-H226 lung and in the test on NCI/ADR-RES ovarian was greater than 100 µM in each case. Also, the TGI in the test on OVCAR-3 ovarian is greater than 100 µM; in the test with HS 578T breast, greater than 100 µM; in the test with KM12 colon, greater than 100 µM; in the test with UO-31 renal, 79.5 µM; with A498 renal, 76.5 µM; with MDA-MB-231 breast, greater than 100 µM. In addition, the TGI with UACC-257 melanoma, with SF-295 CNS, in the test on MDA-N, in the test with HOP-62 NSCLC and in the test on LOX IMVI melanoma was greater than 100 µM each time.
For `C[C@@H](c1ccccc1)n1c(N)c(C#N)c2ccc([N+](=O)[O-])cc2c1=O`, the TGI with K-562 leukemia was 26.1 µM; in the test on 786-0 renal, 31.3 µM; in the test on HOP-92 NSCLC, 24 µM; in the test with SNB-19 CNS, 29.1 µM; in the test on NCI-H226 lung it was 13.2 µM; in the test with NCI/ADR-RES ovarian it was 22.5 µM. Also, the TGI was 69.4 µM in the test on HS 578T breast; 42.8 µM with KM12 colon; 24.1 µM in the test with UO-31 renal; 24.4 µM in the test on A498 renal; 36 µM in the test with NCI-H460 lung; 37 µM with MDA-MB-231 breast. Besides, the results for the TGI in the test with UACC-257 melanoma, in the test with MDA-N and in the test on LOX IMVI melanoma were 40.3 µM, 78.4 µM and 34.9 µM, respectively.
For `N#C[C@@H](c1ccccn1)c1ncccc1[N+](=O)[O-]`, the TGI in the test with K-562 leukemia, in the test on 786-0 renal, in the test on SNB-19 CNS, in the test on NCI/ADR-RES ovarian, in the test on OVCAR-3 ovarian and in the test on HS 578T breast was greater than 100 µM in each case. Further, the TGI with UO-31 renal, with RXF 393 renal, in the test on A498 renal, with NCI-H460 lung, in the test on MDA-MB-231 breast and in the test with SF-295 CNS was greater than 100 µM each time. Further, the TGI in the test with MDA-N, in the test with HOP-62 NSCLC and with LOX IMVI melanoma was greater than 100 µM each time.
As for `C=CCCC1(CC(Sc2ccccc2)P(=O)(c2ccccc2)c2ccccc2)OCCO1` (stereo not drawn), the TGI in the test on K-562 leukemia, in the test on 786-0 renal, in the test with SF-539 CNS, in the test on SNB-19 CNS, in the test with NCI-H226 lung and in the test on NCI/ADR-RES ovarian was greater than 10 µM in each case. The TGI in the test on OVCAR-3 ovarian, in the test on HS 578T breast, with KM12 colon, with UO-31 renal, in the test on RXF 393 renal and in the test on A498 renal was greater than 10 µM throughout. For the same compound, the TGI in the test on NCI-H460 lung, in the test with MDA-MB-231 breast, with UACC-257 melanoma, in the test with SF-295 CNS, in the test with MDA-N and with HOP-62 NSCLC was greater than 10 µM throughout. The same compound displayed a TGI in the test with LOX IMVI melanoma greater than 10 µM.

For the origin of these results see PubChem BioAssay (NCI).
